Measurements as given in ChEMBL document CHEMBL3045707, “Synthesis of new 3-aryl-4-(3-aryl-4,5-dihydro-1H-pyrazol-5-yl)-1-phenyl-1H-pyrazole derivatives as potential antimicrobial agents” (2013).

Legend:
Format in all cases: functional
Escherichia coli [1] = test: Antimicrobial activity against Escherichia coli ATCC 25922 assessed as diameter of growth inhibition zone at 1000 ug/ml after 24 hr by agar well plate method; conditions: ATCC 25922, 24 h, read-out: DIZ
Candida albicans [2] = test: Antimicrobial activity against Candida albicans MTCC 227 assessed as diameter of growth inhibition zone at 500 ug/ml after 72 hr by agar well plate method; conditions: MTCC 227, 72 h, read-out: DIZ
[3] = tested on: Chrysosporium keratinophilum; test: Antimicrobial activity against Chrysosporium keratinophilum assessed as diameter of growth inhibition zone at 500 ug/ml after 72 hr by agar well plate method; conditions: read-out: DIZ
Aspergillus flavus [4] = test: Antimicrobial activity against Aspergillus flavus assessed as diameter of growth inhibition zone at 500 ug/ml after 72 hr by agar well plate method; conditions: read-out: DIZ
Candida albicans [5] = test: Antimicrobial activity against Candida albicans MTCC 227 assessed as diameter of growth inhibition zone at 1000 ug/ml after 72 hr by agar well plate method; conditions: MTCC 227, 72 h, read-out: DIZ
[6] = tested on: Chrysosporium keratinophilum; test: Antimicrobial activity against Chrysosporium keratinophilum assessed as diameter of growth inhibition zone at 1000 ug/ml after 72 hr by agar well plate method; conditions: read-out: DIZ
Aspergillus flavus [7] = test: Antimicrobial activity against Aspergillus flavus assessed as diameter of growth inhibition zone at 1000 ug/ml after 72 hr by agar well plate method; conditions: read-out: DIZ
Pseudomonas aeruginosa [8] = test: Antimicrobial activity against Pseudomonas aeruginosa ATCC 27853 assessed as diameter of growth inhibition zone at 500 ug/ml after 24 hr by agar well plate method; conditions: ATCC 27853, 24 h, read-out: DIZ
Escherichia coli [9] = test: Antimicrobial activity against Escherichia coli ATCC 25922 assessed as diameter of growth inhibition zone at 500 ug/ml after 24 hr by agar well plate method; conditions: ATCC 25922, 24 h, read-out: DIZ
Staphylococcus aureus [10] = test: Antimicrobial activity against Staphylococcus aureus ATCC 25923 assessed as diameter of growth inhibition zone at 500 ug/ml after 24 hr by agar well plate method; conditions: ATCC 25923, 24 h, read-out: DIZ
Pseudomonas aeruginosa [11] = test: Antimicrobial activity against Pseudomonas aeruginosa ATCC 27853 assessed as diameter of growth inhibition zone at 1000 ug/ml after 24 hr by agar well plate method; conditions: ATCC 27853, 24 h, read-out: DIZ
Staphylococcus aureus [12] = test: Antimicrobial activity against Staphylococcus aureus ATCC 25923 assessed as diameter of growth inhibition zone at 1000 ug/ml after 24 hr by agar well plate method; conditions: ATCC 25923, 24 h, read-out: DIZ

In the case of `COc1ccc(-c2nn(-c3ccccc3)cc2C2CC(c3ccc(-c4ccccc4)cc3)=NN2c2ccccc2)cc1` (configuration not stated), the zone of inhibition at 1000 µg/mL (Escherichia coli [1]) is reported as 4 mm, the zone of inhibition at 500 µg/mL (Candida albicans [2]) is reported as 0 mm and the zone of inhibition at 500 µg/mL [3] is reported as 0 mm. For the same compound, the zone of inhibition at 500 µg/mL (Aspergillus flavus [4]) was 0 mm, the zone of inhibition at 1000 µg/mL (Candida albicans [5]) was 0 mm and the zone of inhibition at 1000 µg/mL [6] was 0 mm. It also gave a zone of inhibition at 1000 µg/mL (Aspergillus flavus [7]) of 0 mm, a zone of inhibition at 500 µg/mL (Pseudomonas aeruginosa [8]) of 2 mm and a zone of inhibition at 500 µg/mL (Escherichia coli [9]) of 2 mm. The zone of inhibition at 500 µg/mL (Staphylococcus aureus [10]) was 2 mm, the zone of inhibition at 1000 µg/mL (Pseudomonas aeruginosa [11]) was 5 mm and the zone of inhibition at 1000 µg/mL (Staphylococcus aureus [12]) was 4 mm.
In the case of `CSc1ccc(C2=NN(c3ccccc3)C(c3cn(-c4ccccc4)nc3-c3ccccc3)C2)cc1` (configuration not stated), the zone of inhibition at 1000 µg/mL (Escherichia coli [1]) is reported as 3 mm, the zone of inhibition at 500 µg/mL (Candida albicans [2]) is reported as 0 mm and the zone of inhibition at 500 µg/mL [3] is reported as 0 mm. For the same compound, the zone of inhibition at 500 µg/mL (Aspergillus flavus [4]) was 0 mm, the zone of inhibition at 1000 µg/mL (Candida albicans [5]) was 0 mm and the zone of inhibition at 1000 µg/mL [6] was 0 mm. The zone of inhibition at 1000 µg/mL (Aspergillus flavus [7]) was 0 mm, the zone of inhibition at 500 µg/mL (Pseudomonas aeruginosa [8]) was 2 mm and the zone of inhibition at 500 µg/mL (Escherichia coli [9]) was 1 mm. For the same compound, the zone of inhibition at 500 µg/mL (Staphylococcus aureus [10]) was 0 mm, the zone of inhibition at 1000 µg/mL (Pseudomonas aeruginosa [11]) was 3 mm and the zone of inhibition at 1000 µg/mL (Staphylococcus aureus [12]) was 2 mm.
Work on `CSc1ccc(C2=NN(c3ccccc3)C(c3cn(-c4ccccc4)nc3-c3ccc(Cl)cc3)C2)cc1` (configuration not stated) yielded a zone of inhibition at 1000 µg/mL (Escherichia coli [1]) of 5 mm, a zone of inhibition at 500 µg/mL (Candida albicans [2]) of 1 mm and a zone of inhibition at 500 µg/mL [3] of 1 mm. It also gave a zone of inhibition at 500 µg/mL (Aspergillus flavus [4]) of 2 mm, a zone of inhibition at 1000 µg/mL (Candida albicans [5]) of 3 mm and a zone of inhibition at 1000 µg/mL [6] of 3 mm. The zone of inhibition at 1000 µg/mL (Aspergillus flavus [7]) was 3 mm, the zone of inhibition at 500 µg/mL (Pseudomonas aeruginosa [8]) was 4 mm and the zone of inhibition at 500 µg/mL (Escherichia coli [9]) was 4 mm. It also gave a zone of inhibition at 500 µg/mL (Staphylococcus aureus [10]) of 5 mm, a zone of inhibition at 1000 µg/mL (Pseudomonas aeruginosa [11]) of 7 mm and a zone of inhibition at 1000 µg/mL (Staphylococcus aureus [12]) of 8 mm.
In the case of `Clc1ccc(-c2nn(-c3ccccc3)cc2C2CC(c3ccc(-c4ccccc4)cc3)=NN2c2ccccc2)cc1` (configuration not stated), the zone of inhibition at 1000 µg/mL (Escherichia coli [1]) is reported as 7 mm, the zone of inhibition at 500 µg/mL (Candida albicans [2]) is reported as 2 mm and the zone of inhibition at 500 µg/mL [3] is reported as 3 mm. For the same compound, the zone of inhibition at 500 µg/mL (Aspergillus flavus [4]) was 3 mm, the zone of inhibition at 1000 µg/mL (Candida albicans [5]) was 5 mm and the zone of inhibition at 1000 µg/mL [6] was 4 mm. For the same compound, the zone of inhibition at 1000 µg/mL (Aspergillus flavus [7]) was 5 mm, the zone of inhibition at 500 µg/mL (Pseudomonas aeruginosa [8]) was 6 mm and the zone of inhibition at 500 µg/mL (Escherichia coli [9]) was 5 mm. It also gave a zone of inhibition at 500 µg/mL (Staphylococcus aureus [10]) of 6 mm, a zone of inhibition at 1000 µg/mL (Pseudomonas aeruginosa [11]) of 4 mm and a zone of inhibition at 1000 µg/mL (Staphylococcus aureus [12]) of 8 mm.
`Brc1ccc(-c2nn(-c3ccccc3)cc2C2CC(c3ccc(-c4ccccc4)cc3)=NN2c2ccccc2)cc1` (configuration not stated) showed a zone of inhibition at 1000 µg/mL (Escherichia coli [1]) of 9 mm, a zone of inhibition at 500 µg/mL (Candida albicans [2]) of 4 mm and a zone of inhibition at 500 µg/mL [3] of 3 mm. It also gave a zone of inhibition at 500 µg/mL (Aspergillus flavus [4]) of 5 mm, a zone of inhibition at 1000 µg/mL (Candida albicans [5]) of 5 mm and a zone of inhibition at 1000 µg/mL [6] of 4 mm. For the same compound, the zone of inhibition at 1000 µg/mL (Aspergillus flavus [7]) was 6 mm, the zone of inhibition at 500 µg/mL (Pseudomonas aeruginosa [8]) was 5 mm and the zone of inhibition at 500 µg/mL (Escherichia coli [9]) was 6 mm. It also gave a zone of inhibition at 500 µg/mL (Staphylococcus aureus [10]) of 4 mm, a zone of inhibition at 1000 µg/mL (Pseudomonas aeruginosa [11]) of 7 mm and a zone of inhibition at 1000 µg/mL (Staphylococcus aureus [12]) of 6 mm.
For `OC(Cn1cncn1)(Cn1cncn1)c1ccc(F)cc1F` [FLUCONAZOLE], the zone of inhibition at 500 µg/mL (Candida albicans [2]) was 20 mm, the zone of inhibition at 500 µg/mL [3] was 15 mm and the zone of inhibition at 500 µg/mL (Aspergillus flavus [4]) was 10 mm. For the same compound, the zone of inhibition at 1000 µg/mL (Candida albicans [5]) was 22 mm, the zone of inhibition at 1000 µg/mL [6] was 17 mm and the zone of inhibition at 1000 µg/mL (Aspergillus flavus [7]) was 13 mm.
Compound `CN[C@@H]1[C@H](O[C@H]2[C@H](O[C@H]3[C@H](O)[C@@H](O)[C@H](N=C(N)N)[C@@H](O)[C@@H]3N=C(N)N)O[C@@H](C)[C@]2(O)C=O)O[C@@H](CO)[C@H](O)[C@H]1O` [STREPTOMYCIN] has a zone of inhibition at 1000 µg/mL (Escherichia coli [1]) of 16 mm, a zone of inhibition at 500 µg/mL (Pseudomonas aeruginosa [8]) of 13 mm and a zone of inhibition at 500 µg/mL (Escherichia coli [9]) of 10 mm. For the same compound, the zone of inhibition at 500 µg/mL (Staphylococcus aureus [10]) was 10 mm, the zone of inhibition at 1000 µg/mL (Pseudomonas aeruginosa [11]) was 16 mm and the zone of inhibition at 1000 µg/mL (Staphylococcus aureus [12]) was 15 mm.
